Laboratory results taken from the supplement of paper PMC10920090.

What was measured:
MDA-MB-231 [1] = experiment: drug sensitivity score (DSS), cytotoxicity CellTox Green; higher = more cytotoxic; extreme values may be limits of the assay; conditions: 72 h
MDA-MB-231 [2] = experiment: drug sensitivity score (DSS), cell viability CellTiter-Glo; higher = more sensitive; extreme values may be limits of the assay; conditions: 72 h
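Throughout, for drug sensitivity score (DSS), cytotoxicity CellTox Green: DSS summarises each dose–response curve by combining IC50, EC50, maximal inhibition and efficacy across drug concentrations.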

SMILES | drug sensitivity score (MDA-MB-231 [1]; shRNA: shPPFIA1_1) [DSS] | drug sensitivity score (MDA-MB-231 [1]; shRNA: shScramble) [DSS] | drug sensitivity score (MDA-MB-231 [2]; shRNA: shPPFIA1_1) [DSS] | drug sensitivity score (MDA-MB-231 [2]; shRNA: shScramble) [DSS]
Cc1[nH]c2ccccc2c1CCNCc1ccc(/C=C/C(=O)NO)cc1 [Panobinostat] | 11.6 | 11.4 | 10.9 | 14
C/C(=C\c1csc(C)n1)[C@@H]1C[C@@H]2O[C@]2(C)CCC[C@H](C)[C@H](O)[C@@H](C)C(=O)C(C)(C)[C@@H](O)CC(=O)O1 [Patupilone] | 8.3 | 5.8 | 0 | 12.3
Cc1ccc(Nc2nccc(N(C)c3ccc4c(C)n(C)nc4c3)n2)cc1S(N)(=O)=O [Pazopanib] | 0 | 0 | 2.7 | 7.9
CCOc1cc2ncc(C#N)c(Nc3ccc(F)c(Cl)c3)c2cc1NC(=O)/C=C/CN(C)C [Pelitinib] | 2.7 | 0 | 14.9 | 21.1
Nc1nc2[nH]cc(CCc3ccc(C(=O)N[C@@H](CCC(=O)O)C(=O)O)cc3)c2c(=O)[nH]1 [Pemetrexed] | 0 | 0 | 5.6 | 8.3
OC[C@H]1O[C@@H](n2cnc3c2N=CNC[C@H]3O)C[C@@H]1O [Pentostatin] | 0 | 0 | 0.5 | 0.2
CCCCCCCCCCCCCCCCCCOP(=O)([O-])OC1CC[N+](C)(C)CC1 [Perifosine] | 0.9 | 0 | 0 | 0.9
NS(=O)(=O)OC[C@@H]1C[C@@H](n2ccc3c(N[C@H]4CCc5ccccc54)ncnc32)C[C@@H]1O [Pevonedistat] | 7.6 | 7 | 16.9 | 10.6
FC(F)(F)c1ccc(CNc2ccc(Cc3c[nH]c4ncc(Cl)cc34)cn2)cn1 [Pexidartinib] | 0 | 0 | 0 | 0
CS(=O)(=O)N1CCN(Cc2cc3nc(-c4cccc5[nH]ncc45)nc(N4CCOCC4)c3s2)CC1 [Pictilisib] | 0 | 0 | 0 | 2.9
COc1ccc(Cl)c(Nc2nc3ccccc3nc2NS(=O)(=O)c2cccc(NC(=O)C(C)(C)N)c2)c1 [Pilaralisib] | 0.9 | 0 | 0 | 0.9
CC[C@@H]1C(=O)OC[C@@H]1Cc1cncn1C [Pilocarpine] | 0 | 0 | 0 | 0
CC(C)N(C[C@H]1O[C@@H](n2cnc3c(N)ncnc32)[C@H](O)[C@@H]1O)[C@H]1C[C@@H](CCc2nc3cc(C(C)(C)C)ccc3[nH]2)C1 [Pinometostat] | 0 | 0 | 0 | 0
O=C(CCBr)N1CCN(C(=O)CCBr)CC1 [Pipobroman] | 0 | 0 | 0 | 0
NCCNc1ccc(NCCN)c2c1C(=O)c1ccncc1C2=O [Pixantrone] | 0 | 0 | 3.1 | 0.4
c1cc(CN2CCCNCCNCCCNCC2)ccc1CN1CCCNCCNCCCNCC1 [Plerixafor] | 0 | 0 | 0 | 0
CO[C@H](C(=O)[C@@H](O)[C@@H](C)O)[C@@H]1Cc2cc3cc(O[C@H]4C[C@@H](O[C@@H]5C[C@@H](O)[C@H](O)[C@@H](C)O5)[C@H](O)[C@@H](C)O4)c(C)c(O)c3c(O)c2C(=O)[C@H]1O[C@H]1C[C@@H](O[C@@H]2C[C@@H](O)[C@@H](O[C@@H]3C[C@](C)(O)[C@H](O)[C@@H](C)O3)[C@@H](C)O2)[C@H](O)[C@@H](C)O1 [Plicamycin] | 8.5 | 7.1 | 6.2 | 11.6
Nc1cccc2c1C(=O)N(C1CCC(=O)NC1=O)C2=O (configuration not stated) [Pomalidomide] | 0 | 0 | 0 | 0
C=CC(=O)N1CCC(Oc2cc3c(Nc4ccc(Cl)c(Cl)c4F)ncnc3cc2OC)CC1 [Poziotinib] | 0 | 0 | 3.1 | 0
CCCCc1nc2cc(/C=C/C(=O)NO)ccc2n1CCN(CC)CC [Pracinostat] | 8.1 | 8.5 | 10.6 | 11.9
CC[C@H](C)C(=O)O[C@H]1C[C@H](O)C=C2C=C[C@H](C)[C@H](CC[C@@H](O)C[C@@H](O)CC(=O)O)[C@H]21 [Pravastatin] | 0 | 0 | 2.5 | 1.8
C[C@]12C=CC(=O)C=C1CC[C@@H]1[C@@H]2[C@@H](O)C[C@@]2(C)[C@H]1CC[C@]2(O)C(=O)CO [Prednisolone] | 0 | 0 | 0 | 0

SMILES | drug sensitivity score (MDA-MB-231 [1]; shRNA: shPPFIA1_1) [DSS] | drug sensitivity score (MDA-MB-231 [1]; shRNA: shScramble) [DSS] | drug sensitivity score (MDA-MB-231 [2]; shRNA: shPPFIA1_1) [DSS] | drug sensitivity score (MDA-MB-231 [2]; shRNA: shScramble) [DSS]
C[C@]12C=CC(=O)C=C1CC[C@@H]1[C@@H]2C(=O)C[C@@]2(C)[C@H]1CC[C@]2(O)C(=O)CO [Prednisone] | 0 | 0 | 0 | 0
COc1cccc(OCCCN)c1-c1cc(Nc2cnc(C#N)cn2)n[nH]1 [Prexasertib] | 21 | 6.9 | 13.2 | 29.8
CNNCc1ccc(C(=O)NC(C)C)cc1 [Procarbazine] | 0 | 0 | 0 | 0
Cc1cc(-c2ncc(-c3cccnc3)cc2/C=C/c2ccccc2)cnc1-c1cccnc1 [Pyridoclax] | 0.3 | 0 | 1.9 | 5.9
Cn1cc(CNCC2CCN(c3ncc(C(=O)NO)cn3)CC2)c2ccccc21 [Quisinostat] | 8.6 | 8.2 | 8.8 | 11.2
CC(C)(C)c1cc(NC(=O)Nc2ccc(-c3cn4c(n3)sc3cc(OCCN5CCOCC5)ccc34)cc2)no1 [Quizartinib] | 0 | 0 | 0 | 0
Cn1c(Nc2ccc(C(F)(F)F)cc2)nc2cc(Oc3ccnc(-c4ncc(C(F)(F)F)[nH]4)c3)ccc21 [RAF265] | 0 | 1.6 | 0 | 1.8
CNC(=O)c1ccc(N2C(=S)N(c3ccc(C#N)c(C(F)(F)F)c3)C(=O)C23CCC3)cc1F [RD162] | 0.8 | 0 | 0 | 0
CCNC(=O)Nc1ccc(-c2nc3c(c(N4CCOC[C@@H]4C)n2)CCN(C2COC2)C3)cc1 [RG-7603] | 0 | 0 | 0 | 2.7
Nc1cc(F)ccc1NC(=O)/C=C/c1cnn(C/C=C/c2ccccc2)c1 [RGFP966] | 3.1 | 0 | 2.6 | 0.2
Cc1cnc(NC(=O)Nc2cc(Br)c(C)cc2OC[C@@H]2CNCCO2)cn1 [Rabusertib] | 0 | 0 | 5.3 | 2
C[C@@H]1C[C@H]2O[C@@H]2/C=C\C=C\C(=O)Cc2c(Cl)c(O)cc(O)c2C(=O)O1 [Radicicol] | 0 | 1.9 | 2 | 6.4
CC(C)(C)Cn1c(N)nc2ccc(-c3[nH]c(C(C)(C)C)nc3-c3ccc(F)cc3)nc21 [Ralimetinib] | 0 | 0 | 0.2 | 0
O=C(c1ccc(OCCN2CCCCC2)cc1)c1c(-c2ccc(O)cc2)sc2cc(O)ccc12 [Raloxifene] | 0.4 | 0 | 3.5 | 3.1
Cc1nc(=O)c2cc(CN(C)c3ccc(C(=O)N[C@@H](CCC(=O)O)C(=O)O)s3)ccc2[nH]1 [Raltitrexed] | 0 | 0 | 0 | 0
CNC(=O)c1cc(Oc2ccc(NC(=O)Nc3cc(C(C)(C)C)nn3-c3ccc4ncccc4c3)c(F)c2)ccn1 [Rebastinib] | 0 | 0 | 0 | 0
COc1cc(F)c(F)c(Nc2ccc(I)cc2F)c1NS(=O)(=O)C1(C[C@H](O)CO)CC1 [Refametinib] | 10.5 | 18.6 | 6 | 10.6
CNC(=O)c1cc(Oc2ccc(NC(=O)Nc3ccc(Cl)c(C(F)(F)F)c3)c(F)c2)ccn1 [Regorafenib] | 8.2 | 4.3 | 3.6 | 7
CN(C)Cc1ccc(S(=O)(=O)n2ccc(/C=C/C(=O)NO)c2)cc1 [Resminostat] | 7.5 | 4.4 | 2.5 | 7.1
CN(C)C(=O)c1cc2cnc(Nc3ccc(N4CCNCC4)cn3)nc2n1C1CCCC1 [Ribociclib] | 0 | 0 | 0 | 0
CO[C@H]1C[C@@H]2CC[C@@H](C)[C@@](O)(O2)C(=O)C(=O)N2CCCC[C@H]2C(=O)O[C@H]([C@H](C)C[C@@H]2CC[C@@H](OP(C)(C)=O)[C@H](OC)C2)CC(=O)[C@H](C)/C=C(\C)[C@@H](O)[C@@H](OC)C(=O)[C@H](C)C[C@H](C)/C=C/C=C/C=C/1C [Ridaforolimus] | 0 | 0 | 0 | 1.6
